Test results as given in patent US9139615B2, “High-affinity, dimeric inhibitors of PSD-95 as efficient neuroprotectants against ischemic brain damage and for treatment of pain” (University of Copenhagen, priority 2011, dated 2015).
Where “and” joins values, the source holds several entries; their conditions need not be identical. Equal entries are not always repeated. Entries after “also recorded” stand apart in the source; their conditions may differ. Where a SMILES comes first, the peptide text is derived from it. The star is where a group is joined. 5FAM = O=C1OC2(c3ccc(O)cc3Oc3cc(O)ccc32)c2ccc(C(=O)*)cc21

Columns and labels:
[1] = Spinal cord detection of fluorescent PSD-95 inhibitors; assay type: in vivo, mice; settings: 30 mg/kg i.p., 30 min after injection
Description: To investigate if AB143 and AB145 are able to enter spinal cord tissue, they were administered to the mice by intraperitoneal injection (30 mg/kg). The drug-treated mice were decapitated 30 min after injection, and the spinal cord was carefully dissected out, to which 5% trichloroacetic acid (TCA) (300 μL per 0.1 g tissue) was added and the tissue homogenized with an ultrasonic homogenizer (on ice). The homogenated tissue was vortexed and centrifuged for 10 min (20000 g at 4° C.). The supernatant was transferred to a test tube and evaporated, and the residue was reconstituted in water and its fluoresence intensity was determined by using a fluorescence plate reader (excitation/emission:470/525 nm). For quantification of the compounds, a standard curve was prepared by spiking a known amount of AB143 and AB145 into spinal cord tissue from control mice prior to homogenization, followed by work-up and analysis similar to the drug-treated mice.

[2] = Blood-brain barrier permeability of fluorescent analogues; assay type: in vivo, mice; settings: 5-FAM-labeled, 3 nmol/g i.v., 2 hours after injection, unmanipulated mice
Description: VI.ii. Blood-brain Barrier Permeability. […] After injection of the compounds, the mice are perfused with paraformaldehyde and the brains are carefully removed, post-fixed in paraformaldehyde, processed into coronal sections, and quantified for fluorescence (Example 8).
The fluorescent ligands were injected intravenously (3 nmol/g) and the location of the ligands was detected by fluorescence microscopy of coronal brain slices (n=8) mice, was evaluated 2 hours after injection. Two sections of the brain, prior to and two after the anterior commissure (n=5), were selected for BBB permeability analysis. The anterior commissure (Bregma: −0.3) was used as a fix point in the brain in order to analyse anatomically identical brain sections. The intensity of the 5-FAM fluorophore was measured semi-quantitatively using a fluorescence microscopy system (Olympus System Microscope model BX-51, Denmark) with a 10× objective (Olympus 10×/0.15 UPlanApo) connected to a high-resolution microscope digital camera (Olympus model DP70), which transferred images to an image-capturing software (Image Pro Plus software). All images were taken using the same microscope settings and with constant camera exposure time. Intensities were quantified using the ImageJ software.
5-FAM-labeled derivative of Tat-NR2B9c is designated MS23. After injection of the compounds, the mice are perfused with paraformaldehyde and the brains are carefully removed, post-fixed in paraformaldehyde, processed into coronal sections, and quantified for fluorescence.
C57BL/6 mice with 6 hour post-surgical survival time were euthanized by cervical dislocation. C57BL/6 mice with 48 hour post-surgical survival were anesthetized with an overdosed of pentobarbital (the pharmacy of the Faculty of Life Sciences, University of Copenhagen, Denmark) in order to collect blood and tissue samples. All brains were carefully removed, frozen in gaseous CO2 and cut into 6 series of 30 μm coronal cryostat sections and stored at −80° C. until further use. C57BL/6J mice used to investigate the blood-brain barrier (BBB) permeability of AB143, AB145, AB148, and MS23 were deeply anesthetized and perfused through the left ventricle, using 10 ml chilled Soerensens phosphate buffer (SB) ([…], 125 mM Na2HPO4, pH 7.4) followed by 20 mL SB containing 4% paraformaldehyde (PFA). The brains were carefully removed and post-fixed in 4% PFA for 1 hour followed by immersion in SB containing 20% sucrose over night. The brains were frozen on gaseous CO2 and processed into 16 μm coronal cryostat sections.

[3] = Human blood plasma stability assay; assay type: in vitro ADME
Description: Ligands (dimeric PSD-95 inhibitors) for the PDZ domain of PSD-95 were dissolved in human blood plasma (270 μL; 3H Biomedical, Sweden, cat no 1300-1-P50) to a concentration of 0.25 mM (30 μL, of 2.5 mM) and incubated at 37° C. Aliquots (30 μL) were removed at various time intervals (e.g. 0, 5, 10, 20, 40, 80, 160, 320, 960, 1280, 2550, 4560 and 7240 min) and quenched with 60 μL, trichloroacetic acid (aq., 5%). The aliquots were vortexed, and incubated 15 min, at 4° C. prior to centrifugation at 18,000 g for 2 min. The supernatants were analyzed by analytical RP-HPLC (UV218) to quantify compound relative to time zero, and also evaluated qualitatively by ESI-LC/MS in order to identify the compound (m/z) in the sample. Procaine (positive control) and procainamide (negative control) were investigated at 50 μM to validate the procedure. Ligand recoveries following the precipitation procedure were between 85-95%.

[4] = tested on: pMCAO model of ischemic stroke; experiment: Rotarod performance test after pMCAO; assay type: in vivo, mice; settings: 48 hours after pMCAO
Description: The rotarod (LE 8200, Panlab) is well suited to evaluate motor activity in rodents, experimental compound effects on central nervous system damage, or disease effects on motor coordination, assessed by the time during which the animal remains walking in a rotating drum. The rotation of the rotarod is motor drived and accelerates from 0 to 40 rounds per min (rpm) over a time period of 5 min, at which time all mice have fallen off the rod. All mice were tested in 4 repeating trials with a 20 min interval (resting time). Prior to surgery mice were pre-trained to stay on the rod for 30 seconds, at 4 rpm.

[5] = tested on: pMCAO model of ischemic stroke; experiment: Grip strength after pMCAO; assay type: in vivo, mice; settings: 48 hours after pMCAO, 3 nmol/g i.v.
Description: The grip strength meter (BIO-GT-3, BIOSEB) allows the study of neuromuscular functions in mice by determining the maximum force that is required to make the mouse release its grip. The grip strength in individual paws was used to measure the severity of the pMCAO-induced asymmetry. The mouse is allowed to grasp a metal grid and then pulled backwards in the horizontal plane. The force applied to the grid is recorded as the peak tension. The strength of individual front paws and the total grip strength (both paws simultaneously) were measured before (baseline) and after pMCAO. Each mouse is tested in 5 sequential trials and the highest grip strength is recorded as the best score.

[6] = Physiological status of pMCAO mice (blood values, body weight, temperature, survival); assay type: in vivo; settings: mouse, in vivo
Description: The physiological status of the mice was carefully monitored prior to and during pMCAO surgery in order to exclude the observed effects of treatment with dimeric PSD-95 inhibitors being due to secondary conditions (e.g. disease-related) resulting from the experimental procedure.
9.10 Body weight monitoring: The body weight of each mouse was registered during pre-training, before surgery, and at 24 and 48 hours after surgery and no differences were seen between the treatment groups (FIG. 13).
9.11 Temperature monitoring: The rectal temperature of the mouse was continuously measured using a thermocoupled probe connected to a Model Bat 12 unit (Physitemp). The temperature was measured prior to and 30 min after pMCAO in addition to 30 min and 2.5 hours after i.v. injection, i.e. 1 and 3 hours after pMCAO.
9.12 Blood gas analysis: One samples of venous blood was taken for blood gas analysis of PO2/PCO2 electrolytes, glucose, lactate, and hematocrit, 30 min after compound administration (1 hour after pMCAO). A capillary heparin coated tube was inserted along the inner corner of eye and turned until it penetrated the conjunctiva. A sample of blood (150 μl) was collected and stored on ice until gas analysis using the GEM Premier 300 blood gas instrument (Instrumentation Laboratory) Quality controls (QC ContrlIL9) were purchased from IL Sensor Systems. Also, no differences were detected in blood gas parameters (PO2/PCO2, pH, electrolytes, glu/lac), which were similar between the groups and within normal range, when compared to unmanipulated control mice (Table 4).

## CC[C@H](C)[C@H](NC(=O)CCOCCOCCN(CCOCCOCCC(=O)N[C@H](C(=O)N[C@@H](CCC(=O)O)C(=O)N[C@H](C(=O)N[C@@H](CC(=O)O)C(=O)N[C@H](C(=O)O)C(C)C)[C@@H](C)O)[C@@H](C)CC)C(=O)[C@H](CCCNC(=N)N)NC(=O)[C@H](CCCNC(=N)N)NC(=O)[C@H](CCCNC(=N)N)NC(=O)[C@H](CCC(N)=O)NC(=O)[C@H](CCCNC(=N)N)NC(=O)[C@H](CCCNC(=N)N)NC(=O)[C@H](CCCCN)NC(=O)[C@H](CCCCN)NC(=O)[C@H](CCCNC(=N)N)NC(=O)CNC(=O)[C@H](Cc1ccc(O)cc1)NC(=O)c1ccc2c(c1)C(=O)OC21c2ccc(O)cc2Oc2cc(O)ccc21)C(=O)N[C@@H](CCC(=O)O)C(=O)N[C@H](C(=O)N[C@@H](CC(=O)O)C(=O)N[C@H](C(=O)O)C(C)C)[C@@H](C)O [AB145, F-Tat-NPEG4(IETDV)2]
[1]
  fluorescence in spinal cord tissue compared to saline-treated mice: clear and distinct fluorescence increase
[1]; mice
  concentration in spinal cord, Average ± SEM: 0.074 nmol/g and 0.074 ± 0.022 nmol/g
  concentration in spinal cord, individual samples: 0.035 nmol/g and 0.132 nmol/g and 0.108 nmol/g and 0.084 nmol/g and 0.012 nmol/g
[2]
  entry into brain, fluorescence microscopy of coronal brain slices: enter the brain; also recorded: Detection

## CC[C@H](C)[C@H](NC(=O)CCOCCOCCN(CCOCCOCCC(=O)N[C@H](C(=O)N[C@@H](CCC(=O)O)C(=O)N[C@H](C(=O)N[C@@H](CC(=O)O)C(=O)N[C@H](C(=O)O)C(C)C)[C@@H](C)O)[C@@H](C)CC)C(=O)[C@@H](CCCNC(=N)N)NC(=O)[C@@H](CCCCN)NC(=O)[C@@H](CCCCN)NC(=O)[C@@H](CCCNC(=N)N)NC(=O)[C@@H](CCCNC(=N)N)NC(=O)[C@@H](CCC(N)=O)NC(=O)[C@@H](CCCNC(=N)N)NC(=O)[C@@H](CCCNC(=N)N)NC(=O)[C@H](N)CCCNC(=N)N)C(=O)N[C@@H](CCC(=O)O)C(=O)N[C@H](C(=O)N[C@@H](CC(=O)O)C(=O)N[C@H](C(=O)O)C(C)C)[C@@H](C)O [AB147, Retroinverso-D-Tat-NPEG4(IETDV)2]
[3]
  degradation in human blood plasma: No detectable degradation
[4]; 3 nmol/g i.v., four trials
  total time spent on the rod: 92.6 ± 4.5 s
[4]; trials T1-T4
  short term learning skill improvement on rotarod compared to saline: more pronounced short term learning skill improvement
[5]
  grip strength asymmetry between right and left front paw: no asymmetry and not
  total grip strength (both paws) compared to baseline: no significant change in total grip strength; also recorded: No difference compared to baseline
[6]
  Hct: 41.3 ± 0.6%
  [Ca2+]: 1.31 ± 0.01 mmol/L
  [K+]: 5.1 ± 0.18 mmol/L
  [Lactate]: 0.90 ± 0.05 mmol/L
  [Na+]: 147 ± 0.5 mmol/L
  pCO2: 104 ± 2.5 mmHg
  pO2: 56.4 ± 2.9 mmHg

## CC[C@H](C)[C@H](N)C(=O)N[C@@H](CCC(=O)O)C(=O)N[C@H](C(=O)N[C@@H](CC(=O)O)C(=O)N[C@H](C(=O)O)C(C)C)[C@@H](C)O [IETDV, reference compound]
[3]; human, human blood plasma, 0.25 mM, 37° C., in vitro, read-out: half-life (T1/2) in human blood plasma
  half-life at 0.25 mM: 37 ± 6 min

## CC[C@H](C)[C@H](NC(=O)[C@H](CO)NC(=O)[C@H](CO)NC(=O)[C@H](CC(C)C)NC(=O)[C@H](CCCCN)NC(=O)[C@H](CCCNC(=N)N)NC(=O)[C@H](CCCNC(=N)N)NC(=O)[C@H](CCCNC(=N)N)NC(=O)[C@H](CCC(N)=O)NC(=O)[C@H](CCCNC(=N)N)NC(=O)[C@H](CCCNC(=N)N)NC(=O)[C@H](CCCCN)NC(=O)[C@H](CCCCN)NC(=O)[C@H](CCCNC(=N)N)NC(=O)CNC(=O)[C@H](Cc1ccc(O)cc1)NC(=O)c1ccc2c(c1)C(=O)OC21c2ccc(O)cc2Oc2cc(O)ccc21)C(=O)N[C@@H](CCC(=O)O)C(=O)N[C@@H](CO)C(=O)N[C@@H](CC(=O)O)C(=O)N[C@H](C(=O)O)C(C)C [MS23, F-Tat-NR2B9c, reference compound] (5FAM-YGRKKRRQRRRKLSSIESDV-OH)
[2]
  entry into brain, fluorescence microscopy of coronal brain slices: Detection
